Results: the Kinase Knowledgebase extract (Sharma et al. 2016)

What was measured:
EGFR (human) [1] = target: EGFR (human) (UniProt P00533); settings: sk-br-3
EGFR (human) [2] = target: EGFR (human) (UniProt P00533); settings: mda468
EGFR (mice) = EGFR (mice) (UniProt P00533); settings: swiss 3t3 fibroblast, dose or concentration not given here
EGFR (human) [3] = target: EGFR (human) (UniProt P00533); settings: a431

Chain of EGFR (human) (P00533 whole entry, looked up): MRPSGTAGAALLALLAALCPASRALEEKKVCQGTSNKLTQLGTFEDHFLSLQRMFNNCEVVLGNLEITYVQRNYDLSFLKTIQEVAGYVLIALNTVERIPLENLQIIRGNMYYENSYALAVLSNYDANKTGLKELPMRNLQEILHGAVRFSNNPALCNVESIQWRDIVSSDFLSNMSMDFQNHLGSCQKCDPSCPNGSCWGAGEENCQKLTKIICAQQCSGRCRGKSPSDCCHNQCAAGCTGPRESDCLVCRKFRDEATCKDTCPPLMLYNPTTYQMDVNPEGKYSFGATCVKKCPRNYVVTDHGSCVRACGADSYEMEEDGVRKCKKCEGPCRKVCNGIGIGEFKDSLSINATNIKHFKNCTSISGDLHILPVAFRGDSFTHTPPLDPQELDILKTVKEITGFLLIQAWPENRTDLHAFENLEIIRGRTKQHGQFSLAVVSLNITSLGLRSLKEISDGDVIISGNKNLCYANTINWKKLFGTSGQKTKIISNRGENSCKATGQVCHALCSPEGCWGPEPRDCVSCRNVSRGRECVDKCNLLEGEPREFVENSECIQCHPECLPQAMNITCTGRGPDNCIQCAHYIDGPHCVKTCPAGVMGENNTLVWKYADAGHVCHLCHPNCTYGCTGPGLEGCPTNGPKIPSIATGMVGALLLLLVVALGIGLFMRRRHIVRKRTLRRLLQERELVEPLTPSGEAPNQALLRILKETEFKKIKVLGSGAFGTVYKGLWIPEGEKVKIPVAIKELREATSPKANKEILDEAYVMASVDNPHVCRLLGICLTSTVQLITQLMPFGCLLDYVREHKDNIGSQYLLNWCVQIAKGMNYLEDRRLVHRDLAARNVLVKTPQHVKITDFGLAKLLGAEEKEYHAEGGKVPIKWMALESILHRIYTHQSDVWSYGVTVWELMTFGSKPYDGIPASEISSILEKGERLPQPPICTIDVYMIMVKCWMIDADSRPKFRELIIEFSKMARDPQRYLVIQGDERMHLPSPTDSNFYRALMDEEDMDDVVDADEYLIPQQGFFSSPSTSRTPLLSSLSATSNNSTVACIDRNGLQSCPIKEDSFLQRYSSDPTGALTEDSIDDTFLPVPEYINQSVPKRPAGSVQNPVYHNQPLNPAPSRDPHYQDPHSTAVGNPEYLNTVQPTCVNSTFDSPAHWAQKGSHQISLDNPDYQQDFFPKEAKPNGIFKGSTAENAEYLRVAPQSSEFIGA
Chain of EGFR (mice) (P00533 whole entry, looked up): as above

Row | Structure (SMILES) | IC50 (EGFR (human) [1]) [nM] | also measured
1 | Fc1ccc2ncnc(Nc3cccc(Br)c3)c2n1 | > 10000 | –
2 | Nc1ccc2ncnc(Nc3cccc(Br)c3)c2n1 | 2660 | –
3 | Nc1cc2ncnc(Nc3cccc([N+](=O)[O-])c3)c2cn1 | 1500 | –
4 | Nc1cc2ncnc(NCc3ccccc3)c2cn1 | – | inhibition (EGFR (mice)): 5%
5 | c1ccc(CNc2ncnc3[nH]ccc23)cc1 | > 1000 | IC50 (EGFR (human) [3]): > 1000 nM
6 | Nc1cc2ncnc(Nc3cccc(Br)c3)c2cn1 | 800 | –

More lines, main results first:

Row | IC50 (EGFR (human) [1]) [nM] | Structure (SMILES) | also measured
7 | < 10 | CNc1cc2c(Nc3cccc(Br)c3)ncnc2cn1 | IC50 (EGFR (human) [2]): 3000 nM
8 | < 10 | COc1cc2c(Nc3cccc(Br)c3)ncnc2cn1 | –
9 | < 10 | NNc1ncc2c(NCc3ccccc3)ncnc2n1 | IC50 (EGFR (human) [3]): 124 nM
10 | 39 | CN(C)c1cc2c(Nc3cccc(Br)c3)ncnc2cn1 | IC50 (EGFR (human) [2]): 12000 nM
11 | 100 | CNc1ccc2ncnc(Nc3cccc(Br)c3)c2n1 | –
12 | 71 | CN(C)c1ccc2ncnc(Nc3cccc(Br)c3)c2n1 | –
